Laboratory results: patent publication US20250353841A1 (BIOGEN MA INC., priority 2022, published 2025)

What follows are compounds tested on mutant Huntington (HTT) protein (assay: HTT Mutant HTRF iPSC assay (mHTT protein lowering)). Details: human iPSC derived from a HTT patient with a poly-Q49 mutation.
Type: cell-based
For Cc1cn2nc(-c3cc(F)c4nc(NC(=O)C5COC5)cn4c3)cc(C)c2n1 [Compound 256, N-(6-(2,8-dimethylimidazo[1,2-b]pyridazin-6-yl)-8-fluoroimidazo[1,2-a]pyridin-2-yl)oxetane-3-carboxamide], the IC50 was 100 to 1000 nM. Cc1cn2nc(-c3cc(F)c4nc(C5CCNCC5)cn4c3)cc2c(C)n1 [Compound 195, 2-(8-fluoro-2-(piperidin-4-yl)imidazo[1,2-a]pyridin-6-yl)-4,6-dimethylpyrazolo[1,5-a]pyrazine] was tested, and the IC50 was < 100 nM. Cc1cn2nc(-c3cc(F)c4nn(C5CCN(C)C5)cc4c3)cc(C)c2n1 (stereo not drawn) [Compound 366, 6-(7-fluoro-2-(1-methylpyrrolidin-3-yl)-2H-indazol-5-yl)-2,8-dimethylimidazo[1,2-b]pyridazine] showed an IC50 of 1000 to 9000 nM. For Cc1cn2nc(-c3cc(Cl)c4oc(C5CCNCC5)nc4c3)cc(C)c2n1 [Compound 535, 7-chloro-5-(2,8-dimethylimidazo[1,2-b]pyridazin-6-yl)-2-(4-piperidyl)-1,3-benzoxazole], the IC50 was 1000 to 9000 nM. CCN1CCC(c2cn3cc(-c4cc(C)c5nn(C)cc5c4)cc(F)c3n2)CC1 [Compound 25, 5-(2-(1-ethylpiperidin-4-yl)-8-fluoroimidazo[1,2-a]pyridin-6-yl)-2,7-dimethyl-2H-indazole] was tested, and the IC50 was 100 to 1000 nM. For Cc1cn2nc(-c3cc(F)c4nc(NC(=O)C5CC6(CCNC6)C5)cn4c3)cc(C)c2n1 (stereo not drawn) [Compound 252, N-(6-(2,8-dimethylimidazo[1,2-b]pyridazin-6-yl)-8-fluoroimidazo[1,2-a]pyridin-2-yl)-6-azaspiro[3.4]octane-2-carboxamide], the IC50 was 100 to 1000 nM. Cc1cn2nc(-c3cc(F)c4nc(NC(=O)C5CN(C)C5(C)C)cn4c3)cc(C)c2n1 (racemic) [Compound 259, N-(6-(2,8-dimethylimidazo[1,2-b]pyridazin-6-yl)-8-fluoroimidazo[1,2-a]pyridin-2-yl)-1,2,2-trimethylazetidine-3-carboxamide] was tested, and the IC50 was 100 to 1000 nM. In the case of CNC1CCC(n2cc3cc(-c4cc(C)c5nc(C)cn5n4)cc(F)c3n2)CC1 (stereo not drawn) [Compound 368, 4-(5-(2,8-dimethylimidazo[1,2-b]pyridazin-6-yl)-7-fluoro-2H-indazol-2-yl)-N-methylcyclohexan-1-amine], the IC50 is reported as 100 to 1000 nM. Cn1cc2cc(-c3cc(F)c4nc([C@@H]5CNCCO5)cn4c3)cc(F)c2n1 (single isomer, unassigned) [Compound 71] showed an IC50 of 100 to 1000 nM. Compound Cc1cn2nc(-c3cc(F)c4nc(C5CCN(C6COC6(C)C)CC5)cn4c3)cc(C)c2n1 (stereo not drawn) [Compound 210, 6-(2-(1-(2,2-dimethyloxetan-3-yl)piperidin-4-yl)-8-fluoroimidazo[1,2-a]pyridin-6-yl)-2,8-dimethylimidazo[1,2-b]pyridazine] has an IC50 of 100 to 1000 nM. Compound Cc1cn2cc(-c3cc(F)c4nc(CC5CNC5)cn4c3)cc(F)c2n1 [Compound 21, 2-(azetidin-3-ylmethyl)-8,8′-difluoro-2′-methyl-6,6′-biimidazo[1,2-a]pyridine] has an IC50 of 1000 to 9000 nM. With Cn1cc2cc(-c3cc(F)c4nn(C5CCNCC5)nc4c3)cc(C(F)F)c2n1 [Compound 382, 6-(7-(difluoromethyl)-2-methyl-2H-indazol-5-yl)-4-fluoro-2-(piperidin-4-yl)-2H-benzo[d][1,2,3]triazole] the IC50 was 100 to 1000 nM. For Cc1cn2nc(-c3cc(F)c4[nH]c(C5CCN(C6CCCC6)CC5)nc4c3)cc(C)c2n1 [Compound 427, 6-(2-(1-cyclopentylpiperidin-4-yl)-7-fluoro-1H-benzo[d]imidazol-5-yl)-2,8-dimethylimidazo[1,2-b]pyridazine], the IC50 was < 100 nM. Cc1cn2nc(-c3cc(F)c4nc(C5CCN(C6CCC6)CC5)cn4c3)cc(C)c2n1 [Compound 69, 6-[2-(1-cyclobutyl-4-piperidyl)-8-fluoro-imidazo[1,2-a]pyridin-6-yl]-2,8-dimethyl-imidazo[1,2-b]pyridazine] was tested, and the IC50 was < 100 nM. In the case of Cc1cn2nc(-c3cc(F)c4nc(CC5CCN(C)CC5)cn4c3)cc(C)c2n1 [Compound 237, 6-(8-fluoro-2-((1-methylpiperidin-4-yl)methyl)imidazo[1,2-a]pyridin-6-yl)-2,8-dimethylimidazo[1,2-b]pyridazine], the IC50 is reported as < 100 nM. In the case of Cc1cn2nc(-c3cc(F)c4nc(NC(=O)[C@@H]5CN[C@H]5C)cn4c3)cc(C)c2n1 (stereo in doubt) [Compound 287, rel-(2R,3S)-N-(6-(2,8-dimethylimidazo[1,2-b]pyridazin-6-yl)-8-fluoroimidazo[1,2-a]pyridin-2-yl)-2-methylazetidine-3-carboxamide], the IC50 is reported as < 100 nM. With Fc1cc(-c2ccc3nsnc3c2)cn2cc(C3CCNCC3)nc12 [Compound 54, 5-(8-fluoro-2-(piperidin-4-yl)imidazo[1,2-a]pyridin-6-yl)benzo[c][1,2,5]thiadi azole] the IC50 was 1000 to 9000 nM. COc1cc(-c2cc(C)c3nc(C)nn3c2)cc2cn(C3CCNCC3)nc12 [Compound 547, 6-(7-methoxy-2-(piperidin-4-yl)-2H-indazol-5-yl)-2,8-dimethyl-[1,2,4]triazolo[1,5-a]pyridine] showed an IC50 of 1000 to 9000 nM. With CCN1CCC(c2cn3cc(-c4cc(F)c5nn(C)cc5c4)cc(F)c3n2)CC1 [Compound 5, 5-(2-(1-ethylpiperidin-4-yl)-8-fluoroimidazo[1,2-a]pyridin-6-yl)-7-fluoro-2-methyl-2H-indazole] the IC50 was 100 to 1000 nM. Cc1cn2nc(-c3cc(F)c4nc(C5CCNC6(CC6)C5)nn4c3)cc(C)c2n1 (stereo not drawn) [Compound 454, 6-(2,8-dimethylimidazo[1,2-b]pyridazin-6-yl)-8-fluoro-2-(4-azaspiro[2.5]octan-7-yl)-[1,2,4]triazolo[1,5-a]pyridine] gave an IC50 of 100 to 1000 nM. In the case of Cc1cn2nc(-c3cc(F)c4nc([C@H]5CCCNC5)cn4c3)cc(C)c2n1 (single isomer, unassigned) [Compound 117], the IC50 is reported as 100 to 1000 nM. For Cc1cn2nc(-c3cc(F)c4nc(NC(=O)CC5CCNCC5)cn4c3)cc(C)c2n1 [Compound 284, N-(6-(2,8-dimethylimidazo[1,2-b]pyridazin-6-yl)-8-fluoroimidazo[1,2-a]pyridin-2-yl)-2-(piperidin-4-yl)acetamide], the IC50 was 100 to 1000 nM. Work on Cn1ncc2cc(-c3cc(F)c4nc(C5CCNCC5)cn4c3)cc(F)c21 [Compound 104, 7-fluoro-5-(8-fluoro-2-(piperidin-4-yl)imidazo[1,2-a]pyridin-6-yl)-1-methyl-1H-indazole] yielded an IC50 of 1000 to 9000 nM. Cc1cn2nc(-c3cc(F)c4nc(C5CCN(C)CC5)oc4c3)cc(C)c2n1 [Compound 456, 6-(2,8-dimethylimidazo[1,2-b]pyridazin-6-yl)-4-fluoro-2-(1-methylpiperidin-4-yl)benzo[d]oxazole] gave an IC50 of 100 to 1000 nM. Cn1cc2cc(-c3cc(F)c4nc(C5CCNCC5)cn4c3)cc(C#N)c2n1 [Compound 85, 5-(8-fluoro-2-(piperidin-4-yl)imidazo[1,2-a]pyridin-6-yl)-2-methyl-2H-indazole-7-carbonitrile] was tested, and the IC50 was 100 to 1000 nM. CNC12COC(c3cn4cc(-c5cc(F)c6nn(C)cc6c5)cc(F)c4n3)(C1)C2 [Compound 79, 1-[8-fluoro-6-(7-fluoro-2-methyl-indazol-5-yl)imidazo[1,2-a]pyridin-2-yl]-N-methyl-2-oxabicyclo[2.1.1]hexan-4-amine] was tested, and the IC50 was 100 to 1000 nM. Cc1cn2nc(-c3cc(F)c4nc(NC(=O)C5CN(CCF)C5)cn4c3)cc(C)c2n1 [Compound 266, N-(6-(2,8-dimethylimidazo[1,2-b]pyridazin-6-yl)-8-fluoroimidazo[1,2-a]pyridin-2-yl)-1-(2-fluoroethyl)azetidine-3-carboxamide] was tested, and the IC50 was < 100 nM. Cc1cn2nc(-c3cc(F)c4nc(C5CCN(CC6CC6)CC5)cn4c3)cc(C)c2n1 [Compound 165, 6-(2-(1-(cyclopropylmethyl)piperidin-4-yl)-8-fluoroimidazo[1,2-a]pyridin-6-yl)-2,8-dimethylimidazo[1,2-b]pyridazine] was tested, and the IC50 was < 100 nM. Work on Cc1cn2nc(-c3cc(F)c4nc([C@@H]5CCNC6(CC6)C5)cn4c3)cc(C)c2n1 (single isomer, unassigned) [Compound 179] yielded an IC50 of 100 to 1000 nM. Cc1cn2nc(-c3cc(F)c4nc(NC(=O)C5CC(CN(C)C)C5)cn4c3)cc(C)c2n1 (stereo not drawn) [Compound 251, 3-((dimethylamino)methyl)-N-(6-(2,8-dimethylimidazo[1,2-b]pyridazin-6-yl)-8-fluoroimidazo[1,2-a]pyridin-2-yl)cyclobutane-1-carboxamide] showed an IC50 of 100 to 1000 nM. Compound CNCCc1cn2cc(-c3ccc4nn(C)cc4c3)cc(F)c2n1 [Compound 22, 2-(8-fluoro-6-(2-methyl-2H-indazol-5-yl)imidazo[1,2-a]pyridin-2-yl)-N-methylethan-1-amine] has an IC50 of 1000 to 9000 nM. With Cc1cn2nc(-c3cc(F)c4nc(NC5CCN6CCCC6C5)oc4c3)cc(C)c2n1 (stereo not drawn) [Compound 482, 6-(2,8-dimethylimidazo[1,2-b]pyridazin-6-yl)-4-fluoro-N-(octahydroindolizin-7-yl)benzo[d]oxazol-2-amine] the IC50 was < 100 nM. Cc1cn2nc(-c3cc(F)c4nc(NC(=O)C5CN(C(C)C)C5)cn4c3)cc(C(F)F)c2n1 [Compound 290, N-[6-[8-(difluoromethyl)-2-methyl-imidazo[1,2-b]pyridazin-6-yl]-8-fluoro-imidazo[1,2-a]pyridin-2-yl]-1-isopropyl-azetidine-3-carboxamide] was tested, and the IC50 was < 100 nM. With Cc1cn2nc(-c3cc(F)c4nn(C5CC6(CCNCC6)C5)nc4c3)cc(C)c2n1 [Compound 395, 6-(2,8-dimethylimidazo[1,2-b]pyridazin-6-yl)-4-fluoro-2-(7-azaspiro[3.5]nonan-2-yl)-2H-benzo[d][1,2,3]triazole] the IC50 was < 100 nM. For Cc1nc2c(C)cc(-c3cc(F)c4nc([C@H]5[C@@H]6CN(C)C[C@@H]65)cn4c3)nn2n1 [Compound 227, 6-(8-fluoro-2-((1R,5S,6r)-3-methyl-3-azabicyclo[3.1.0]hexan-6-yl)imidazo[1,2-a]pyridin-6-yl)-2,8-dimethyl-[1,2,4]triazolo[1,5-b]pyridazine], the IC50 was < 100 nM. CCc1nc(C)cn2cc(-c3cc(F)c4nc(C5CCN(C6CC6)CC5)cn4c3)cc12 [Compound 172, 2-(1-cyclopropylpiperidin-4-yl)-6-(1-ethyl-3-methylpyrrolo[1,2-a]pyrazin-7-yl)-8-fluoroimidazo[1,2-a]pyridine] showed an IC50 of 100 to 1000 nM.
